Results: patent publication US6358984B1, “2,4-dioxopyrrolidine and 2,4-dioxotetrahydrofuran derivatives and medicines containing the same as the active ingredient” (Lead Chemical Co., Ltd., priority 1996, dated 2002)
pIC50: −log10 of the molar value. Like-named read-outs stand apart in the source and are kept apart here.

Legend:
[1] = target: T1, angiotensin II receptor (Oryctolagus cuniculus, UniProt P34976); test: Binding inhibition of 3H labeled angiotensin II to angiotensin II receptor membrane fraction; design: species or system rabbit; details: rabbit adrenal gland membrane, 3H labeled angiotensin II 10^-9M; read-out: Receptor binding inhibition effect IC50
T1 construct: fraction of angiotensin II receptor membrane ([…]) prepared from rabbit adrenal gland; from tissue; host or cells: rabbit adrenal gland membrane fraction
T1 sequence (P34976 1-359): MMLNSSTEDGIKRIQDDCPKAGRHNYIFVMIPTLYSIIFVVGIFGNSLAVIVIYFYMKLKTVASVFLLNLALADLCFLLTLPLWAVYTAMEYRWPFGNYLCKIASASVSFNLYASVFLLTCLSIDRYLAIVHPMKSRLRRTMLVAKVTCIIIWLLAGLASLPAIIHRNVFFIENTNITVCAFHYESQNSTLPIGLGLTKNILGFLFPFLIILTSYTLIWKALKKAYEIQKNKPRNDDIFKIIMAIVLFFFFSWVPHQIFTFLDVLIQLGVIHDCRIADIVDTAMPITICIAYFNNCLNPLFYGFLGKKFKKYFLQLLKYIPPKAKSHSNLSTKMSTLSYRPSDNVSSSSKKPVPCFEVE
Method: The method of Cox et. al (Biochemical Pharmacology 33, 4057-4064 (1984) was modified to conduct angiotensin II receptor binding inhibition experiments. The present compounds (10^−5M to 10^−9M) and ^3H labeled angiotensin II (10^−9M) were added to a fraction of angiotensin II receptor membrane ([…]) prepared from rabbit adrenal gland and were allowed to react in a 20 mM Tris HCl buffer (pH: 7.0) containing 120 mM NaCl, 5 mM EDTA, 0.1 mM PMSF, and 0.2% BSA at 30° C. for 20 minutes so that the final volume was 540 μl. Then, the reaction mixture was quickly passed through a filter (whatman GF/B), and the filter was then rinsed three times in 4 ml of the buffer cooled in ice. Then, the radioactivity of receptor binding ^3H labeled angiotensin II captured on the filter was measured using a liquid scintillation counter. The angiotensin II receptor binding inhibition activity of the present compounds was evaluated based on the concentration (IC 50) required to replace 50% of the total amount of specifically binding ^3H labeled angiotensin II.

[2] = test system: aortae of guinea pigs; test: Inhibition of vascular contraction caused by angiotensin II using pieces of the aortae of guinea pigs; format: cell-based; details: guinea pig chest aorta, contraction induced by angiotensin II, read-out: Vascular contraction inhibition effect IC50
Method: Male Hartly guinea pigs (350 to 400 g) were contused on the head and sacrificed by allowing their blood to discharge from the arteria carotis communis. Immediately after death, the chest aorta was removed. A spiral sample of width 2 to 3 mm and length 20 to 25 mm was cut from the aorta, and was suspended in 4.5 ml of Krebs-Henseleit (K-H) solution (120 mM NaCl, 4.7 mM KCl, […], 1.2 mM KH2PO4, 2.5 mM CaCl2, 25 mM NaHCO3, and 10 mM glucose) in a Magnus vessel. The K-H solution in the Magnus vessel was maintained at 37° C., and a mixture gas of 95% O2 and 5% CO2 was continuously bubbled through the solution. First, 1 g of initial tension was applied to the sample, which was then left to stand rest for about 30 minutes, and 45 μl of 4M KCl solution was added to the solution to induce contraction. After contraction had stabilized, a washing operation was performed to replace the K-H solution. Then, after the sample was left to stand for 30 minutes, 45 μl of solvent DMSO was added to incubate the sample for 15 minutes, and 45 μl of angiotensin II solution (3×10^−8M) was added to induce contraction. This operation was repeated three times and 100% contraction was used as the average. Subsequently, the sample was stabilized by washing. Then, a 45 μl sample of each test compound prepared for each concentration (3×10^−5M to 10^−7M) using DMSO as a solvent was used to observe the inhibition effect of angiotensin II on vascular contraction by performing the same operation as described above. The contraction reaction was recorded on a recorder (RTA-1100, Japan Photoelectronics) via an equi-scale pressure transducer (TB-651T, Japan Photoelectronics). The angiotensin II inhibition effects of the test compounds were evaluated using the IC50 value.

[3] = test system: hypertension caused by angiotensin II; test: Inhibition effect in the hypertension caused by angiotensin II using rats; format: in vivo, rat; details: i. v., male SD rats, angiotensin II 100 ng/kg; for inhibition in vivo at 1 mg/kg: Rattus norvegicus, iv
Method: Male SD rats (age; 11 weeks; 310 to 330 g) Were used, and indwelling cannula were placed in the femoral aorta and the vena cava, under anesthesia with inactin. The arterial cannula was connected to a pressure transducer to record the blood pressure via a carrier amplifier (AP-601G Japan Photoelectronics) using a polygraph system (RM-6000 Japan Photoelectronics). Prior to tests using the test compounds, 100 ng/kg-equivalent angiotensin II (50 μl of serum solution from the rat) was administered using a regular-pulse cannula to check the hypertensive action. Then, 30 minutes later, a 1 mg/kg-equivalent test compound (50 μl of serum solution from the rat) was administered using the regular-pulse cannula, and similar administration of angiotensin II was performed 5 and 60 minutes later to check the corresponding hypertensive action. The hypertensive effect resulting from the administration of only angiotensin II was taken as a reference value of 100% to determine the antihypertensive rates of the test compounds.

[4] = 5 min, 5 minutes after administration, read-out: Inhibition effect in the hypertension by angiotensin II, 5 minutes after administration
[5] = 1 h, 60 minutes after administration, read-out: Inhibition effect in the hypertension by angiotensin II, 60 minutes after administration

Compound	pIC50 [1]	pIC50 ([2]; Cavia porcellus)	melting point	pIC50 [2]	Inhibition effect in the hypertension by angiotensin II, 5 minutes after administration ([3]; 1 mg/kg, 5 minutes after administration)	Inhibition effect in the hypertension by angiotensin II, 60 minutes after administration ([3]; 1 mg/kg, 60 minutes after administration)	inhibition in vivo at 1 mg/kg [3, 4]	inhibition in vivo at 1 mg/kg [3, 5]
CCCCc1nc(-c2ccccc2)nn1Cc1ccc(-c2ccccc2/C=C2\NC(=O)CC2=O)cc1 [Compound 1e, 5-Butyl-3-phenyl-1-[2′-[(2,4-dioxopyrrolidine-5(Z)-ylidene)methyl]biphenyl-4-yl]methyl-1H-1,2,4-triazole]	< 5.20	< 3.52	180 to 181 °C					
CCCCc1nc(-c2ccc(F)cc2)nn1Cc1ccc(-c2ccccc2/C=C2\OC(=O)C=C2O)cc1 [Compound 2g, 5-Butyl-3-(4-fluorophenyl)-1-[2′-[(4-hydroxy-2(5H)-furanone-5(Z)-ylidene)methyl]biphenyl-4-yl]methyl-1H-1,2,4-triazole]	6.16	< 3.52	175 to 176 °C					
CCCCc1nnc(CCCC)n1Cc1ccc(-c2ccccc2/C=C2\OC(=O)C=C2O)cc1 [Compound 19b, 3,5-Dibutyl-1-[2′-[(4-hydroxy-2(5H)-furanone-5(Z)-ylidene)-methyl]biphenyl-4-yl]methyl-4H-1,2,4-triazole]	6.17	< 3.52						
CCCCc1nc(-c2ccccc2F)nn1Cc1ccc(-c2ccccc2/C=C2\NC(=O)CC2=O)cc1 [Compound 1h, 5-Butyl-3-(2-fluorophenyl)-1-[2′-[(2,4-dioxopyrrolidine-5(Z)-ylidene)methyl]biphenyl-4-yl]methyl-1H-1,2,4-triazole]	5.35	< 3.52	169 to 170 °C					
CCCCc1nc(-c2ccncc2)nn1Cc1ccc(-c2ccccc2/C=C2\NC(=O)CC2=O)cc1 [Compound 1i, 5-Butyl-3-(pyridine-4-yl)-1-[2′-[(2,4-dioxopyrrolidine-5(Z)-ylidene)methyl]biphenyl-4-yl]methyl-1H-1,2,4-triazole]	< 5.20	< 3.52	144 to 145 °C					
CC(C)c1nc(C(C)C)n(Cc2ccc(-c3ccccc3/C=C3\OC(=O)C=C3O)cc2)n1 [Compound 2b, 3,5-Diisopropyl-1-[2′-[(4-hydroxy-2(5H)-furanone-5(Z)-ylidene)methyl]biphenyl-4-yl]methyl-1H-1,2,4-triazole]	6.03	< 3.52	191 to 193 °C					
CCCCc1nc(-c2ccc(F)cc2)nn1Cc1ccc(-c2ccccc2/C=C2\NC(=O)CC2=O)cc1 [Compound 1g, 5-Butyl-3-(4-fluorophenyl)-1-[2′-[(2,4-dioxopyrrolidine-5(Z)-ylidene)methyl]biphenyl-4-yl]methyl-1H-1,2,4-triazole]	< 5.21	< 3.52	188 to 190 °C					
5-Butyl-3-(3-fluorophenyl)-1-[2′-[(4-hydroxy-2(5H)-furanone-5(Z)-ylidene)methyl]biphenyl-4-yl]methyl-1H-1,2,4-triazole [Compound 2h]				3.66	+ (30% > + ≧ 10%)	− (10% > −)		
CCCCc1nc(-c2cccs2)nn1Cc1ccc(-c2ccccc2/C=C2\OC(=O)C=C2O)cc1 [Compound 2k, 5-Butyl-3-(thiophene-2-yl)-1-[2′-[(4-hydroxy-2(5H)-furanone-5(Z)-ylidene)methyl]biphenyl-4-yl]methyl-1H-1,2,4-triazole]	6.51	< 3.52	179 to 180 °C				10 to 30%	< 10%
CCCCc1nnc(CCCC)n1Cc1ccc(-c2ccccc2/C=C2\NC(=O)CC2=O)cc1 [Compound 19a]	5.10	< 3.52	185 to 186 °C					
CCCCc1nc(-c2ccco2)nn1Cc1ccc(-c2ccccc2/C=C2\OC(=O)C=C2O)cc1 [Compound 2j, 5-Butyl-(furan-2-yl)-1-[2′-[(4-hydroxy-2(5H)-furanone-5(Z)-ylidene)methyl]biphenyl-4-yl]methyl-1H-1,2,4-triazole]	6.55	< 3.52	172 to 173 °C				< 10%	< 10%
CCCCc1nc(-c2ccco2)nn1Cc1ccc(-c2ccccc2/C=C2\NC(=O)CC2=O)cc1 [Compound 1j, 5-Butyl-3-(furan-2-yl)-1-[2′-[(2,4-dioxopyrrolidine-5(Z)-ylidene)methyl]biphenyl-4-yl]methyl-1H-1,2,4-triazole]	5.66	< 3.52	169 to 170 °C					
CCCCc1nc(C2CC2)nn1Cc1ccc(-c2ccccc2/C=C2\NC(=O)CC2=O)cc1 [Compound 1c, 5-Butyl-3-cyclopropyl-1-[2′-[(2,4-dioxopyrrolidine-5(Z)-ylidene)methyl]biphenyl-4-yl]methyl-1H-1,2,4-triazole]	5.70	< 3.52	166 to 168 °C					
CCCCc1nc(-c2cccs2)nn1Cc1ccc(-c2ccccc2/C=C2\NC(=O)CC2=O)cc1 [Compound 1k, 5-Butyl-3-(thiophene-2-yl)-1-[2′-[(2,4-dioxopyrrolidine-5(Z)-ylidene)methyl]biphenyl-4-yl]methyl-1H-1,2,4-triazole]	5.38	< 3.52	186 to 187 °C					
CCCc1nc(CCC)n(Cc2ccc(-c3ccccc3/C=C3\NC(=O)CC3=O)cc2)n1 [Compound 1a, 3,5-Dipropyl-1-[2′-[(2,4-dioxopyrrolidine-5(Z)-ylidene)methyl]biphenyl-4-yl]methyl-1H-1,2,4-triazole]	6.66	< 3.52	179 to 180 °C				30 to 70%	< 10%
CC(C)c1nc(C(C)C)n(Cc2ccc(-c3ccccc3/C=C3\NC(=O)CC3=O)cc2)n1 [Compound 1b, 3,5-Diisopropyl-1-[2′-[(2,4-dioxopyrrolidine-5-(Z)-ylidene)methyl]biphenyl-4-yl]methyl-1H-1,2,4-triazole]	< 5.15	< 3.52	141 to 142 °C					
CCCCc1nc(-c2cccc(F)c2)nn1Cc1ccc(-c2ccccc2/C=C2\OC(=O)C=C2O)cc1 [Compound 2h, 5-Butyl-3-(3-fluorophenyl)-1-[2′-[(4-hydroxy-2(5H)-furanone-5(Z)-ylidene)methyl]biphenyl-4-yl]methyl-1H-1,2,4-triazole]			184 to 185 °C					
